Measurements published in PMC4448988 (Pharmacology Research & Perspectives, 2015).

How the values were obtained:
[1] = target: human CYP24A1 (Homo sapiens, UniProt Q07973); assay type: in vitro ADME; details: pH 7.4
[2] = tested on: ED-71 O-dehydroxypropylation activity in human small intestine microsomes; assay type: in vitro ADME; details: 1 μmol/L ketoconazole

Row | SMILES | Relative kcat/Km [1] | ED-71 O-dehydroxypropylation activity reduced to (remaining activity) [2] [%]
1 | C=C1/C(=C\C=C2/CCC[C@]3(C)[C@@H]([C@H](C)CCCC(C)(C)O)CC[C@@H]23)C[C@@H](O)C[C@@H]1O [1α,25(OH)2D3, 1α,25-dihydroxyvitamin D3] | 1 | –
2 | CC(=O)N1CCN(c2ccc(OCC3COC(Cn4ccnc4)(c4ccc(Cl)cc4Cl)O3)cc2)CC1 (centres unmarked) [ketoconazole] | – | 37
